Where a name gives a salt, the structure may show the parent alone.
target: FGFR2 (Homo sapiens, UniProt P21802); experiment: FGFR wild type enzyme assay (HTRF KinEASE-TK), FGFR2; conditions: Enz FGFR2 (nM)
Sequence (P21802 399-821 limits assumed): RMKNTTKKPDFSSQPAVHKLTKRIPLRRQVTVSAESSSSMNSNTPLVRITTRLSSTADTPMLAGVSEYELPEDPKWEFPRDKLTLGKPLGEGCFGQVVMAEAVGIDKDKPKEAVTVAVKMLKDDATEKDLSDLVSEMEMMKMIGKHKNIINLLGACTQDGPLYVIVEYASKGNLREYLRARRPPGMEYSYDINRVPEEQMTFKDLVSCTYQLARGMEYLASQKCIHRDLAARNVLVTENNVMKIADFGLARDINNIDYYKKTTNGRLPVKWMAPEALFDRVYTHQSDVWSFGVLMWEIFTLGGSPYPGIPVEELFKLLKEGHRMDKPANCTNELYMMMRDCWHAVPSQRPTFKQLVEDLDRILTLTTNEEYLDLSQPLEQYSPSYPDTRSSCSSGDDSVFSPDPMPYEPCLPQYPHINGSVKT

SMILES | IC50 [nM]
CSc1cc(-c2cnn([C@H]3CCCNC3)c2)cn2ncc(C#N)c12 [Example 50, 4-methylsulfanyl-6-[1-[(3S)-3-piperidyl]pyrazol-4-yl] pyrazolo[1,5-a]pyridine-3-carbonitrile] | 2
CCSc1cc(-c2cnn([C@H]3CCCNC3)c2)cn2ncc(C#N)c12 [Example 51, 4-ethylsulfanyl-6-[1-[(3S)-3-piperidyl]pyrazol-4-yl]pyrazolo[1,5-a]pyridine-3-carbonitrile] | 1
CC(C)Sc1cc(-c2cnn([C@H]3CCCNC3)c2)cn2ncc(C#N)c12 [Example 52, 4-isopropylsulfanyl-6-[1-[(3S)-3-piperidyl]pyrazol-4-yl]pyrazolo[1,5-a]pyridine-3-carbonitrile] | 2
COCCSc1cc(-c2cnn([C@H]3CCCNC3)c2)cn2ncc(C#N)c12 [Example 53, 4-(2-methoxyethylsulfanyl)-6-[1-[(3S)-3-piperidyl]pyrazol-4-yl]pyrazolo[1,5-a]pyridine-3-carbonitrile] | 3
N#Cc1cnn2cc(-c3cnn([C@H]4CCCNC4)c3)cc(SC3CCC3)c12 [Example 54, 4-cyclobutylsulfanyl-6-[1-[(3S)-3-piperidyl]pyrazol-4-yl]pyrazolo[1,5-a]pyridine-3-carbonitrile] | 1
N#Cc1cnn2cc(-c3cnn([C@H]4CCCNC4)c3)cc(Sc3cnccn3)c12 [Example 55, 6-[1-[(3S)-3-piperidyl]pyrazol-4-yl]-4-pyrazin-2-ylsulfanyl-pyrazolo[1,5-a]pyridine-3-carbonitrile] | 13
Cc1c(-c2cc(Sc3ccccn3)c3c(C#N)cnn3c2)cnn1[C@H]1CCCNC1 [Example 56, 6-[5-methyl-1-[(3S)-3-piperidyl]pyrazol-4-yl]-4-(2-pyridylsulfanyl)pyrazolo[1,5-a]pyridine-3-carbonitrile] | 6
Cn1ncc2cc(Sc3cc(-c4cnn([C@H]5CCCNC5)c4)cn4ncc(C#N)c34)ccc21 [Example 57, 4-(1-methylindazol-5-yl)sulfanyl-6-[1-[(3S)-3-piperidyl]pyrazol-4-yl]pyrazolo[1,5-a]pyridine-3-carbonitrile] | 13
N#Cc1cnn2cc(-c3cnn([C@H]4CCCNC4)c3)cc(SC3CCOC3)c12 (stereo partly drawn) [Example 58, 6-[1-[(3S)-3-piperidyl]pyrazol-4-yl]-4-tetrahydrofuran-3-ylsulfanyl-pyrazolo[1,5-a]pyridine-3-carbonitrile] | 4
Cc1ccnc(Sc2cc(-c3cnn([C@H]4CCCNC4)c3)cn3ncc(C#N)c23)c1 [Example 59, 4-[(4-methyl-2-pyridyl)sulfanyl]-6-[1-[(3S)-3-piperidyl]pyrazol-4-yl]pyrazolo[1,5-a]pyridine-3-carbonitrile] | 11
N#Cc1cnn2cc(-c3cnn(C4CCNCC4)c3)cc(Sc3ncccn3)c12 [Example 60, 6-(1-(piperidin-4-yl)-1H-pyrazol-4-yl)-4-(pyrimidin-2-ylthio)pyrazolo[1,5-a]pyridine-3-carbonitrile, HCl] | 7
Cn1nccc1Sc1cc(-c2cnn(C3CCNCC3)c2)cn2ncc(C#N)c12 [Example 61, 4-((1-methyl-1H-pyrazol-5-yl)thio)-6-(1-(piperidin-4-yl)-1H-pyrazol-4-yl)pyrazolo[1,5-a]pyridine-3-carbonitrile, HCl] | 9
N#Cc1ccccc1Sc1cc(-c2cnn(C3CCNCC3)c2)cn2ncc(C#N)c12 [Example 62, 4-((2-cyanophenyl)thio)-6-(1-(piperidin-4-yl)-1H-pyrazol-4-yl)pyrazolo[1,5-a]pyridine-3-carbonitrile] | 0.3
N#Cc1cnn2cc(-c3cnn([C@H]4CCCNC4)c3)cc(Sc3ncccc3F)c12 [Example 63, 4-[(3-fluoro-2-pyridyl)sulfanyl]-6-[1-[(3S)-3-piperidyl]pyrazol-4-yl]pyrazolo[1,5-a]pyridine-3-carbonitrile] | 1
N#Cc1cnn2cc(-c3cnn([C@H]4CCCNC4)c3)cc(Sc3cc(C(F)(F)F)ccn3)c12 [Example 64, 6-[1-[(3S)-3-piperidyl]pyrazol-4-y1]-4-[[4-(trifluoromethyl)-2-pyridyl]sulfanyl]pyrazolo[1,5-a]pyridine-3-carbonitrile] | 61
Cc1cccnc1Sc1cc(-c2cnn(C3CCNCC3)c2)cn2ncc(C#N)c12 [Example 65, 4-((3-methylpyridin-2-yl)thio)-6-(1-(piperidin-4-yl)-1H-pyrazol-4-yl)pyrazolo[1,5-a]pyridine-3-carbonitrile, HCl] | 4
Cc1cc(Sc2cc(-c3cnn(C4CCNCC4)c3)cn3ncc(C#N)c23)n(C)n1 [Example 66, 4-((1,3-dimethyl-1H-pyrazol-5-yl)thio)-6-(1-(piperidin-4-yl)-1H-pyrazol-4-yl)pyrazolo[1,5-a]pyridine-3-carbonitrile, HCl] | 12

SMILES | IC50 [nM]
N#Cc1cnn2cc(-c3cnn([C@H]4CCCNC4)c3)cc(Sc3ncccc3C(F)(F)F)c12 [Example 67] | 4
N#Cc1cnn2cc(-c3cnn([C@H]4CCCNC4)c3)cc(Sc3cccc(C(F)(F)F)n3)c12 [Example 68, 6-[1-[(3S)-3-piperidyl]pyrazol-4-yl]-4-[[6-(trifluoromethyl)-2-pyridyl]sulfanyl] pyrazolo[1,5-a]pyridine-3-carbonitrile] | 68
N#Cc1cccc(Sc2cc(-c3cnn(C4CCNCC4)c3)cn3ncc(C#N)c23)c1 [Example 69, 4-((3-cyanophenyl)thio)-6-(1-(piperidin-4-yl)-1H-pyrazol-4-yl)pyrazolo[1,5-a]pyridine-3-carbonitrile] | 8
Cc1ccc(F)c(Sc2cc(-c3cnn(C4CCNCC4)c3)cn3ncc(C#N)c23)n1 [Example 70, 4-((3-fluoro-6-methylpyridin-2-yl)thio)-6-(1-(piperidin-4-yl)-1H-pyrazol-4-yl)pyrazolo[1,5-a]pyridine-3-carbonitrile, HCl] | 3
Cc1ccnc(Sc2cc(-c3cnn(C4CCNCC4)c3)cn3ncc(C#N)c23)c1C [Example 72, 4-((3,4-dimethylpyridin-2-yl)thio)-6-(1-(piperidin-4-yl)-1H-pyrazol-4-yl)pyrazolo[1,5-a]pyridine-3-carbonitrile] | 3
N#Cc1cnn2cc(-c3cnn([C@H]4CCNC4)c3)cc(Sc3ccccn3)c12 [Example 73, (S)-4-(pyridin-2-ylthio)-6-(1-(pyrrolidin-3-yl)-1H-pyrazol-4-yl)pyrazolo[1,5-a]pyridine-3-carbonitrile, HCl] | 4
N#Cc1cnn2cc(-c3cnn([C@H]4CCCNC4)c3)cc(Sc3ccccc3CO)c12 [Example 74, 4-[2-(hydroxymethyl)phenyl]sulfa-nyl-6-[1-[(3S)-3-piperidyl]pyrazol-4-yl]pyrazolo[1,5-a]pyridine-3-carbonitrile] | 6
N#Cc1cnn2cc(-c3cnn([C@H]4CCCNC4)c3)cc(Sc3cccc(C(F)F)n3)c12 [Example 75, 4-[[6-(difluoromethyl)-2-pyridyl]sulfanyl]-6-[1-[(3S)-3-piperidyl]pyrazol-4-yl]pyrazolo[1,5-a]pyridine-3-carbonitrile] | 22
N#Cc1cnn2cc(-c3cnn([C@H]4CCCNC4)c3)cc(Sc3ccncn3)c12 [Example 76, 6-[1-[(3S)-3-piperidyl]pyrazol-4-yl]-4-pyrimidin-4-ylsulfanyl-pyrazolo[1,5-a]pyridine-3-carbonitrile] | 237
N#Cc1cccc(Sc2cc(-c3cnn([C@H]4CCCNC4)c3)cn3ncc(C#N)c23)n1 [Example 77, 4-[(6-cyano-2-pyridyl)sulfanyl]-6-[1-[(3S)-3-piperidyl]pyrazol-4-yl]pyrazolo[1,5-a]pyridine-3-carbonitrile] | 99
Cc1cc(F)cc(Sc2cc(-c3cnn([C@H]4CCCNC4)c3)cn3ncc(C#N)c23)n1 [Example 78, 4-[(4-fluoro-6-methyl-2-pyridyl)sulfanyl]-6-[1-[(3S)-3-piperidyl]pyrazol-4-yl]pyrazolo[1,5-a]pyridine-3-carbonitrile] | 27
CC(C)OC[C@@H](C)Sc1cc(-c2cnn([C@H]3CCCNC3)c2)cn2ncc(C#N)c12 [Example 79, 4-[(1R)-2-isopropoxy-1-methyl-ethyl]sulfanyl-6-[1-[(3S)-3-piperidyl]pyrazol-4-yl]pyrazolo[1,5-a]pyridine-3-carbonitrile] | 2
Cc1ccncc1Sc1cc(-c2cnn([C@H]3CCCNC3)c2)cn2ncc(C#N)c12 [Example 80, 4-[(4-methyl-3-pyridyl)sulfanyl]-6-[1-[(3S)-3-piperidyl]pyrazol-4-yl]pyrazolo[1,5-a]pyridine-3-carbonitrile] | 8
Cc1ncccc1Sc1cc(-c2cnn([C@H]3CCCNC3)c2)cn2ncc(C#N)c12 [Example 81, 4-[(2-methyl-3-pyridyl)sulfanyl]-6-[1-[(3S)-3-piperidyl]pyrazol-4-yl]pyrazolo[1,5-a]pyridine-3-carbonitrile] | 31
N#Cc1cnn2cc(-c3cnn([C@H]4CCCNC4)c3)cc(Sc3cccnn3)c12 [Example 82, 6-[1-[(3S)-3-piperidyl]pyrazol-4-yl]-4-pyridazin-3-ylsulfanyl-pyrazolo[1,5-a]pyridine-3-carbonitrile] | 32
N#Cc1cnn2cc(-c3cnn([C@H]4CCCNC4)c3)cc(Sc3cncnc3)c12 [Example 83, 6-[1-[(3S)-3-piperidyl]pyrazol-4-yl]-4-pyrimidin-5-ylsulfanyl-pyrazolo[1,5-a] pyridine-3-carbonitrile] | 19
Cc1ccnc(C)c1Sc1cc(-c2cnn([C@H]3CCCNC3)c2)cn2ncc(C#N)c12 [Example 84, 4-[(2,4-dimethyl-3-pyridyl)sulfanyl]-6-[1-[(3S)-3-piperidyl]pyrazol-4-yl]pyrazolo[1,5-a]pyridine-3-carbonitrile] | 11

same assay, conditions: Enz FGFR2 (nM), FGFR2 wild type enzyme assay

SMILES | IC50 [nM]
Cc1c(-c2cc(Sc3ccc(F)cc3C#N)c3c(C#N)cnn3c2)cnn1C1CCC(C)(C)NC1 (stereo in doubt) [Example 529, 4-(2-cyano-4-fluoro-phenyl)sulfanyl-6-[1-[(3R)-6,6-dimethyl-3-piperidyl]-5-methyl-pyrazol-4-yl]pyrazolo[1,5-a]pyridine-3-carbonitrile] | 1

From US20240270741A1 (Cogent Biosciences, Inc., priority 2023, published 2024)
